Test results: patent publication US20250091994A1, “RAS/RAF BINDING INHIBITOR COMPOUND” (NATIONAL UNIVERSITY CORPORATION KOBE UNIVERSITY, priority 2021, published 2025)
Read-outs that look alike come from different tables or passages of the source.

Legend:
[1] = tested on: large bowel cancer cell SW620 (K-RasG12V); experiment: Cell growth inhibition, adherent cells SW620; assay type: cell-based; details: Homo sapiens, SW-620, 72 hours; for inhibition at 3.2 µM: read-out: SW620 (KRasG12V) % inhibition at 3.2 μM (***); for inhibition at 1 µM: read-out: SW620 (KRasG12V) % inhibition at 1 μM
Procedure: (§1) The cell growth inhibitory activity of the compound of the present invention on human culture cells having active-type mutation in Ras was evaluated by the below-mentioned method using suspension cancer cells {acute lymphoblastic leukemia cells CCRF-CEM (K-RasG12D), promyelocytic leukemia cells HL60 (N-RasQ61L), acute lymphoblastic leukemia cells MOLT4 (N-RasG12C), and small cell lung cancer cells SHP77 (K-RasG12V)} and adherent cancer cells {large bowel cancer cells SW480 (K-RasG12V) and large bowel cancer cell SW620 (K-RasG12V)}.
(Case of adherent cells) The cells suspended in a medium containing 10% FBS (1 to 2×10^4 cells/well) were seeded on a 96-well plate, and were then cultured at 37° C. in the presence of […]. Thereafter, the medium was exchanged with a medium containing […], to which each compound solution (final DMSO concentration: […]) had been added, and the cells were then cultured at 37° C. in the presence of […] for 72 hours.
(§2) Thereafter, the number of viable cells was measured using Cell Counting Reagent (Nacalai Tesque) in accordance with the manufacturer's instructions. Inhibition by the test compound was determined according to the following equation: […]

[2] = tested on: promyelocytic leukemia cells HL60 (N-RasQ61L); experiment: Cell growth inhibition, suspension cells HL60; assay type: cell-based; details: Homo sapiens, HL-60, 72 hours; for inhibition at 3.3 µM: read-out: HL-60 (NRasQ61L) % inhibition at 3.3 μM (**); for inhibition at 1.1 µM: read-out: HL-60 (NRasQ61L) % inhibition at 1.1 μM (*)
Procedure: as §1
(Case of suspension cells) The cells suspended in a medium containing 0.5% (v/v) fetal bovine serum (FBS) and each compound solution (final DMSO concentration: 1%) were seeded on a 96-well plate (2 to 4×10^4 cells/well), and the resulting mixture was then cultured at 37° C. in the presence of 5% CO2 for 72 hours.
as §2

[3] = biological target: GTPγS-bound human HRasG12V / human c-Raf-1 Ras binding domain (RBD) (Homo sapiens (Human), UniProt P01112, G12V); experiment: Ras-Raf binding inhibition ELISA
Procedure: The in vitro Ras-Raf binding inhibitory activity of the compound of the present invention was evaluated by an ELISA method (Enzyme-Linked ImmunoSorbent Assay) described below.
Ras and Raf used upon the evaluation were purified and activated by the following method.
Using a pGEX6P-1 vector (GE Healthcare), human HRasG12V (full length, 1-189 amino acid residues) and human c-Raf-1 Ras binding domain (RBD) (50-131 amino acid residues) were each allowed to express as a fusion body with glutathione S-transferase (GST) in E. coli.
GST-HRasG12V-expressing cells were subjected to ultrasonication in a buffer {50 mM Tris-HCl pH 7.4, 150 mM NaCl, 5 mM MgCl2, 1 mM ethylenediaminetetraacetic acid (EDTA), 1 mM dithiothreitol (DTT), 10% glycerol, and 1% Triton-X100}, and were then centrifuged at 100,000×g for 30 minutes, so as to collect the supernatant as a Ras protein fraction. HRasG12V in the supernatant was immobilized on a glutathione-agarose resin, and GST was then cleaved with PreScission Protease (GE Healthcare) for purification. The obtained HRasG12V was mixed with guanosine 5′-O-[gamma-thio]triphosphate trisodium salt (GTPTS) of 1000 times higher concentration at 30° C. for 1 hour, and thereafter, 20 mM MgCl2 (final concentration) was added to stop the reaction and collect the GTPgS-loaded HRasG12V as a product.
On the other hand, GST-c-Raf-1 RBD-expressing cells were subjected to ultrasonication in the same buffer as described above, and were then centrifuged at 100,000×g for 30 minutes, so as to collected the supernatant as a GST-c-Raf-1 RBD protein fraction.
The in vitro Ras-Raf binding inhibitory activity of the compound of the present invention was evaluated by an ELISA method described below.
GST-c-Raf-1 RBD diluted with a Ras-Raf binding buffer (50 mM Tris-HCl pH7.4, 150 mM NaCl, 5 mM MgCl2, 1 mM EDTA, and 1% Triton-X100) was added to each well of a glutathione-coated 96-well plate (Thermo Fisher Scientific.), and was incubated at 30° C. for 1 hour, to immobilize Raf on the well. The unbound free Raf was eliminated by washing the well with the Ras-Raf binding buffer three times. Subsequently, GTPTS-bound HRasG12V diluted with the Ras-Raf binding buffer and each compound solution (final DMSO concentration: 10%) were applied to each well, and the resulting mixture was then incubated at 30° C. for 1 hour, so that Ras and Raf were allowed to bind to each other. Thereafter, the plate was washed with the Ras-Raf binding buffer twice, and was then subjected to a blocking treatment at room temperature for 20 minutes, using TBS-Tween {10 mM Tris-HCl pH 7.4, 150 mM NaCl, and 0.05% (w/v) Tween-20}-5% (w/v) bovine serum albumin (BSA). After that, an anti-HRas antibody (C-20, Santa Cruz) or an anti-HRas antibody (259, Santa Cruz), which had been 1000 times diluted with TBS-Tween-5% BSA, was added to the reaction mixture, and incubated at room temperature for 1 hours. After the treatment with the primary antibody, the plate was washed with TBS-Tween-5% BSA three times, and a horseradish peroxidase-labeled secondary antibody against rabbit immunoglobulin G (GE Healthcare) of 1000 times diluted with TBS-Tween-5% BSA, was added to the plate, followed by incubation at room temperature for 1 hour. After the treatment with the secondary antibody, the plate was washed with TBS-Tween-5% BSA three times, and a substrate solution (TMB) was then added to the plate, followed by incubation at room temperature for 15 minutes for coloration. Finally, 2 M H2SO4 was added to stop color development (coloration reaction kit: Nacalai Tesque). The absorbance at 450 nm (OD450) was measured, so that the color intensity was quantified. Inhibition by the test compound was determined according to the following equation: […]
IC50 (*) in which the anti-HRas antibody (259, Santa Cruz) was used

[4] = anti-HRas antibody C-20, read-out: ELISA IC50 (μM): 1st Ab_C-20
[5] = anti-HRas antibody 259 (*), read-out: ELISA IC50 (μM): 1st Ab_259 (*)

Chain of GTPγS-bound human HRasG12V / human c-Raf-1 Ras binding domain (RBD) (P01112 whole entry G12V, the tested form may be a part): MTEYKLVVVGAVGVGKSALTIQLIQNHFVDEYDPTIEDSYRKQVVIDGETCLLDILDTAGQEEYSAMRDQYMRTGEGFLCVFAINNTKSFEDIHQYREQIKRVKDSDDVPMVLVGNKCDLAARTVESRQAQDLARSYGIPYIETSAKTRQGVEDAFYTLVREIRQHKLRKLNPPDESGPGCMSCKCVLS

SMILES	inhibition at 1 µM [3]	IC50 [3, 4]	inhibition at 3.2 µM [1]	inhibition at 1 µM [1]	inhibition at 3.3 µM [2]	further results
CC(=O)N1/C(=C\c2cc(-c3cccc(-c4ccccc4)c3)c3cc(C(=O)N4CCOCC4)ccc3n2)C(=O)c2ccccc21 [Example 88, (Z)-2-((4-([1,1′-biphenyl]-3-yl)-6-(morpholine-4-carbonyl)quinolin-2-yl)methylene)-1-acetylindolin-3-one]		0.98 µM		46%	89%	
CC(=O)N1/C(=C\c2cc(-c3ccccc3-c3ccccc3)c3cc(C(=O)N4CCOCC4)ccc3n2)C(=O)c2ccccc21 [Example 89, (Z)-2-((4-([1,1′-biphenyl]-2-yl)-6-(morpholine-4-carbonyl)quinolin-2-yl)methylene)-1-acetylindolin-3-one]		0.5 µM		71%		inhibition at 1.1 µM [2]: 95%
CC(=O)N1/C(=C\c2cc(-c3cccc4cccnc34)c3cc(C(=O)N4CCOCC4)ccc3n2)C(=O)c2ccccc21 [Example 91, (Z)-1-acetyl-2-((6-(morpholine-4-carbonyl)-[4,8′-biquinolin]-2-yl)-methylene)indolin-3-one]		0.87 µM		70%	97%	
CC(=O)N1C(=Cc2cc(-c3cccnc3-c3ccccc3)c3cc(C(=O)N4CCOCC4)ccc3n2)C(=O)c2ccccc21 [Example 94, 1-acetyl-2-((6-(morpholine-4-carbonyl)-4-(2-phenylpyridin-3-yl)quinolin-2-yl)-methylene)indolin-3-one]				82%	96%	
CC(=O)N1/C(=C\c2cc(-c3ccccc3-c3ccccc3)c3cc(C(=O)N4CCN(C5COC5)CC4)ccc3n2)C(=O)c2ccccc21 [Example 95, (Z)-2-((4-([1,1′-biphenyl]-2-yl)-6-(4-(oxetan-3-yl)-piperazine-1-carbonyl)quinolin-2-yl)methylene)-1-acetylindolin-3-one]		0.44 µM		70%		inhibition at 1.1 µM [2]: 88%
CC(=O)N1/C(=C\c2nc3ccc(C(=O)N4CC(C)OC(C)C4)cc3s2)C(=O)c2ccccc21 (stereo not drawn) [Example 100, (Z)-1-acetyl-2-((6-(2,6-dimethyl-morpholine-4-carbonyl)benzo [d]thiazol-2-yl)-methylene)indolin-3-one]						inhibition at 10 µM ([2]; 10 μM (***), read-out: HL-60 (NRasQ61L) % inhibition at 10 μM (***)): 87%; IC50 [3, 5]: 0.77 µM
CC(=O)N1/C(=C/c2cc(-c3ccnc4ccccc34)c3cc(C(=O)N4CCOCC4)ccc3n2)C(=O)c2ccccc21 [Example 117, (E)-1-acetyl-2-((6-(morpholine-4-carbonyl)-[4,4′-biquinolin]-2-yl)-methylene)indolin-3-one]				66%	94%	
CC(=O)N1/C(=C\c2ccc3cc(CNC4CCN(C5COC5)CC4)ccc3n2)C(=O)c2ccccc21 [Example 138, (Z)-1-acetyl-2-((6-(((1-(oxetan-3-yl)piperidin-4-yl)amino)meth-yl)quinolin-2-yl)-methylene)indolin-3-one]					65%	IC50 [3, 5]: 0.88 µM

Continued, in another order:

inhibition at 1 µM [3]	IC50 [3, 4]	SMILES	inhibition at 3.2 µM [1]	inhibition at 1 µM [1]	inhibition at 3.3 µM [2]	further results
66.1%	0.5 µM	CC(=O)N1C(=Cc2cc(-c3ccc4c(c3)CCNC4=O)c3cc(C(=O)N4CCOCC4)ccc3n2)C(=O)c2ccccc21 (racemic) [Example 147, 6-(2-((1-acetyl-3-oxoindolin-2-ylidene)methyl)-6-(morpholine-4-carbonyl)quinolin-4-yl)-3,4-dihydro-isoquinolin-1(2H)-one]	92.2%			inhibition at 3.2 µM ([2]; 3.2 μM (****), read-out: HL-60 (NRasQ61L) % inhibition at 3.2 μM (****)): 59.1%
	0.49 µM	CC(=O)N1/C(=C\c2cc(-c3ccccc3-c3ccccc3)c3cc(C(=O)O)ccc3n2)C(=O)c2ccccc21 [Example 128, (Z)-4-([1,1′-biphenyl]-2-yl)-2-((1-acetyl-3-oxo-indolin-2-ylidene)-methyl)quinoline-6-carboxylic acid]		70%	96%	
66.8%	0.5 µM	CC(=O)N1/C(=C\c2cc(-c3cn[nH]c3)c3cc(C(=O)N4CCOCC4)ccc3n2)C(=O)c2ccccc21 [Example 170, (Z)-1-acetyl-2-((6-(morpholine-4-carbonyl)-4-(1H-pyrazol-4-yl)quinolin-2-yl)-methylene)indolin-3-one]	41.6%			
72%	0.4 µM	CC(=O)N1/C(=C\c2cc(-c3cnn(C)c3)c3cc(C(=O)N4CCOCC4)ccc3n2)C(=O)c2ccccc21 [Example 171, (Z)-1-acetyl-2-((4-(1-methyl-1H-pyrazol-4-yl)-6-(morpholine-4-carbonyl)quinolin-2-yl)methylene)-indolin-3-one]	79.5%			
53.7%	0.9 µM	CC(=O)N1/C(=C\c2cc(-c3ncn(C)n3)c3cc(C(=O)N4CCOCC4)ccc3n2)C(=O)c2ccccc21 [Example 188, (Z)-1-acetyl-2-((4-(1-methyl-1H-1,2,4-triazol-3-yl)-6-(morpholine-4-carbonyl)quinolin-2-yl)methylene)-indolin-3-one]	79.3%			
66.3%	0.7 µM	CC(=O)N1/C(=C\c2cc(-c3cnn(C)c3)c3cc(CNC4CCOCC4)ccc3n2)C(=O)c2ccccc21 [Example 205, (Z)-1-acetyl-2-((4-(1-methyl-1H-pyrazol-4-yl)-6-(((tetrahydro-2H-pyran-4-yl)amino)-methyl)quinolin-2-yl)methylene)-indolin-3-one]	37%			
